# Laboratory results: article PMC11280325, “Design, Synthesis, and Characterization of Novel Thiazolidine-2,4-Dione-Acridine Hybrids as Antitumor Agents” (Molecules, 2024)
# How the values were obtained:
# [1] = system: Bj-5ta; assay: MTT assay, BJ-5ta non-cancerous fibroblasts; format: cell-based, human; settings: non-cancerous dermal fibroblasts, 48 h incubation
# Procedure, shortened: (§1)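 IC50 by nonlinear regression from MTT absorbance (540 nm, SDS-dissolved formazan), at least three repeats. Non-cancerous human lines, MCF-10A and BJ-5ta fibroblasts, were treated 48 h with 5, 10, 20 and 50 µmol/L compound, added 24 h after seeding.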
# [2] = system: A549; assay: MTT assay, A549; format: cell-based, human; settings: lung adenocarcinoma, 48 h incubation
# Procedure, shortened: (§2)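 MTT viability after 48 h exposure to compounds at final 5–50 µmol/L; formazan in 10% SDS read at 540 nm, IC50 fitted by nonlinear regression from at least three independent experiments.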
# [3] = system: Hep G2; assay: MTT assay, Hep G2; format: cell-based, human; settings: hepatocellular carcinoma, 48 h incubation
# Procedure, shortened: as §2
# [4] = system: HeLa; assay: MTT assay, HeLa; format: cell-based, human; settings: cervical adenocarcinoma, 48 h incubation
# Procedure, shortened: (§3)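 Absorbance at 540 nm of SDS-solubilised formazan after 48 h compound exposure (5–50 µmol/L); IC50 from nonlinear regression over at least three independent repeats. HeLa and HCT116 grown in RPMI 1640, A2058 and PATU 8902 in DMEM, both with 10% FBS.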
# [5] = system: HCT116; assay: MTT assay, HCT116; format: cell-based, human; settings: colorectal adenocarcinoma, 48 h incubation
# Procedure, shortened: as §3
# [6] = system: PATU; assay: MTT assay, PATU 8902; format: cell-based, human; settings: pancreas adenocarcinoma, 48 h incubation
# Procedure, shortened: as §3
# [7] = system: A2058; assay: MTT assay, A2058; format: cell-based; settings: human melanoma, 48 h incubation
# Procedure, shortened: as §3
# [8] = target: T1, bovine serum albumin (BSA) (Bos taurus, UniProt P02769); assay: BSA fluorescence quenching (Stern–Volmer); format: binding; settings: for Stern–Volmer quenching constant Ksv: BSA 1 μM, excitation 280 nm, PBS pH 7.4, 24 °C; for bimolecular quenching rate constant kq: kq = Ksv/τ0, τ0 = 10^−8 s, BSA, pH 7.4, 24 °C
# T1 construct: purchased Sigma-Aldrich
# T1 sequence (P02769 25-607): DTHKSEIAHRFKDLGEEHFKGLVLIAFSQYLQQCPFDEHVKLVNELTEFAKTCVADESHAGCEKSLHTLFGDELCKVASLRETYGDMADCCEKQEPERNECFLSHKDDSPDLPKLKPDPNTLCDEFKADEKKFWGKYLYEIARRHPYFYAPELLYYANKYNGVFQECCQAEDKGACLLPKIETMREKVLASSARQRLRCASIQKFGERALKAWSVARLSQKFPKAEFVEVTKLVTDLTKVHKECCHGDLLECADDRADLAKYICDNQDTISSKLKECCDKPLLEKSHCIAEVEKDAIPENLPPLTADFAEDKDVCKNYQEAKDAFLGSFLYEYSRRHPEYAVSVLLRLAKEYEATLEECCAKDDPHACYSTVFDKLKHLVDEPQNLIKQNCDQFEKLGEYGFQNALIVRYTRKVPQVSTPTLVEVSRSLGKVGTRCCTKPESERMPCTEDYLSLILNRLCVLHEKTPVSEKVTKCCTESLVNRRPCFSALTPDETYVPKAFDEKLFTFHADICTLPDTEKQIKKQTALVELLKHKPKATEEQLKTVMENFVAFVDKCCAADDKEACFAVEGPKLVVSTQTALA
# Text: BSA contains 582 amino acid residues, including tyrosine (Tyr), phenylalanine (Phe), and tryptophan (Trp). The tryptophan residues located at positions 134 and 212 being predominantly responsible for its intrinsic fluorescence due to their higher quantum yield than the other amino acids. When excitation occurs at 280 nm, both Trp and Tyr contribute to the fluorescence of the protein [44]. In this study, we investigated the interaction of newly synthesized derivatives (7e·2HCl, 12d·2HCl, 13c·HCl, and 13d), which have promising anticancer properties, with BSA. BSA (1 μM) was titrated with increasing concentration of acridine derivatives, and fluorescence spectra were recorded in the range of 300–500 nm (Figure 10). The fluorescence quenching for the quencher (Q) and protein interaction was analyzed using the Stern–Volmer equation [45, 46]: F0/F=1+Ksv [Q]=1+Kq τ0[Q] where F0 and F denote the fluorescence intensities in the absence and presence of the quencher Q, respectively. Ksv is the Stern–Volmer constant, kq is the bimolecular quenching rate constant (kq = Ksv/τ0), and τ0 is the lifetime of BSA in the absence of quencher, which is equal to 10^−8 s for the tryptophan fluorescence of proteins.
# The fluorescence spectra were recorded using a Varian Cary Eclipse spectrofluorometer (Palo Alto, CA, USA) in a 10 mM phosphate-buffered saline solution (pH = 7.4) at 24 °C. The spectra were measured with an excitation wavelength of 280 nm using a slit width of 10 nm for both the excitation and emission beams over a range of 300–450 nm. Spectrofluorometric BSA titrations were performed with increasing concentrations of acridine derivatives.
# [9] = system: MCF-10A; assay: MTT assay, MCF-10A non-cancerous cells; format: cell-based, human; settings: non-cancerous epithelial breast cells, 48 h incubation
# Procedure, shortened: as §1
# [10] = system: A2780; assay: MTT assay, A2780; format: cell-based, human; settings: ovarian adenocarcinoma, 48 h incubation
# Procedure, shortened: as §2
smiles,measurement,setting,value
"COc1cc(/C=C2\SC(=O)N(Cc3c4ccccc4nc4ccccc34)C2=O)ccc1OCC(=O)Nc1ccc([N+](=O)[O-])cc1.Cl.Cl [12d·2HCl, 2-(4-{[(5Z)-3-[(Acridin-9-yl)methyl]-2,4-dioxo-1,3-thiazolidin-5-ylidene]methyl}-2-methoxyphenoxy)-N-(4-nitrophenyl)acetamide dihydrochloride]",IC50,[1],> 50 µM
same,IC50,[2],> 50 µM
same,IC50,[3],> 50 µM
same,IC50,[4],19.3 ± 5.5 µM
same,IC50,[5],17.6 ± 4.5 µM
same,IC50,[6],30.8 ± 6.2 µM
same,IC50,[7],> 50 µM
same,Stern–Volmer quenching constant Ksv,[8],10.47 × 10^4 [M^−1]
same,bimolecular quenching rate constant kq,[8],10.47 × 10^12 [M^−1·s^−1]
"COc1cc(/C=C2\SC(=O)N(Cc3cccc4cc5ccccc5nc34)C2=O)ccc1OCC(=O)Nc1cc(OC)c(OC)c(OC)c1.Cl [13c·HCl, 2-(4-{[(5Z)-3-[(Acridin-4-yl)methyl]-2,4-dioxo-1,3-thiazolidin-5-ylidene]methyl}-2-methoxyphenoxy)-N-(3,4,5-trimethoxyphenyl)acetamide hydrochloride]",IC50,[1],> 50 µM
same,IC50,[2],14.6 ± 3.3 µM
same,IC50,[3],23.4 ± 3.4 µM
same,IC50,[4],14.3 ± 6.4 µM
same,IC50,[5],> 50 µM
same,IC50,[6],> 50 µM
same,IC50,[7],> 50 µM
same,Stern–Volmer quenching constant Ksv,[8],10.58 × 10^4 [M^−1]
same,bimolecular quenching rate constant kq,[8],10.58 × 10^12 [M^−1·s^−1]
"Cl.Cl.O=C(COc1ccc(/C=C2\SC(=O)N(Cc3c4ccccc4nc4ccccc34)C2=O)cc1)Nc1ccccc1C(F)(F)F [Compound 7e·2HCl, 2-(4-{[(5Z)-3-[(Acridin-9-yl)methyl]-2,4-dioxo-1,3-thiazolidin-5-ylidene]methyl}phenoxy)-N-[2-(trifluoromethyl)phenyl]acetamide dihydrochloride]",IC50,[9],> 50 µM
same,IC50,[1],> 50 µM
same,IC50,[2],34.3 ± 5.7 µM
same,IC50,[3],> 50 µM
same,IC50,[10],> 50 µM
same,IC50,[4],20.5 ± 3.8 µM
same,IC50,[5],8.9 ± 3.1 µM
same,IC50,[6],11 ± 2.2 µM
same,IC50,[7],> 50 µM
same,Stern–Volmer quenching constant Ksv,[8],10.74 × 10^4 [M^−1]
same,bimolecular quenching rate constant kq,[8],10.74 × 10^12 [M^−1·s^−1]
"COc1cc(NC(=O)COc2ccc(/C=C3\SC(=O)N(Cc4cccc5cc6ccccc6nc45)C3=O)cc2OC)cc(OC)c1 [Compound 13b, 2-(4-{[(5Z)-3-[(Acridin-4-yl)methyl]-2,4-dioxo-1,3-thiazolidin-5-ylidene]methyl}-2-methoxyphenoxy)-N-(3,5-dimethoxyphenyl)acetamide]",IC50,"[9]; Homo sapiens, MCF-10A, 48 h",43.6 ± 3.3 µM
same,IC50,"[1]; Homo sapiens, Fibroblast, 48 h",41.7 ± 0.8 µM
same,IC50,"[2]; Homo sapiens, A549, 48 h",38.9 ± 2.1 µM
same,IC50,"[3]; Homo sapiens, HepG2, 48 h",> 50 µM
same,IC50,"[10]; Homo sapiens, A2780, 48 h",> 50 µM
same,IC50,"[4]; Homo sapiens, HeLa, 48 h",25.7 ± 3.45 µM
same,IC50,"[5]; Homo sapiens, HCT-116, 48 h",44.7 ± 4.1 µM
same,IC50,"[6]; Homo sapiens, PaTu 8902, 48 h",> 50 µM
same,IC50,"[7]; Homo sapiens, A2058, 48 h",34.4 ± 2.45 µM
same,melting point,,222 to 224 °C
"COc1cc(/C=C2\SC(=O)N(Cc3cccc4cc5ccccc5nc34)C2=O)ccc1OCC(=O)Nc1cc(OC)c(OC)c(OC)c1 [Compound 13c, 2-(4-{[(5Z)-3-[(Acridin-4-yl)methyl]-2,4-dioxo-1,3-thiazolidin-5-ylidene]methyl}-2-methoxyphenoxy)-N-(3,4,5-trimethoxyphenyl)acetamide]",IC50,"[9]; Homo sapiens, MCF-10A, 48 h",> 50 µM
same,IC50,"[1]; Homo sapiens, Fibroblast, 48 h",> 50 µM
same,IC50,[2],> 50 µM
same,IC50,[3],> 50 µM
same,IC50,"[10]; Homo sapiens, A2780, 48 h",> 50 µM
same,IC50,[4],44.2 ± 4.1 µM
same,IC50,[5],23.1 ± 5.7 µM
same,IC50,"[6]; Homo sapiens, PaTu 8902, 48 h",> 50 µM
same,IC50,"[7]; Homo sapiens, A2058, 48 h",42.5 ± 0.25 µM
same,melting point,,228 to 230 °C (dec.)
"COc1cc(/C=C2\SC(=O)N(Cc3cccc4cc5ccccc5nc34)C2=O)ccc1OCC(=O)Nc1ccc([N+](=O)[O-])cc1 [Compound 13d, 2-(4-{[(5Z)-3-[(Acridin-4-yl)methyl]-2,4-dioxo-1,3-thiazolidin-5-ylidene]methyl}-2-methoxyphenoxy)-N-(4-nitrophenyl)acetamide]",IC50,"[9]; Homo sapiens, MCF-10A, 48 h",> 50 µM
same,IC50,"[1]; Homo sapiens, Fibroblast, 48 h",38.5 ± 4.5 µM
same,IC50,"[2]; Homo sapiens, A549, 48 h",46.9 ± 3.1 µM
same,IC50,"[3]; Homo sapiens, HepG2, 48 h",> 50 µM
same,IC50,"[10]; Homo sapiens, A2780, 48 h",> 50 µM
same,IC50,"[4]; Homo sapiens, HeLa, 48 h",36.2 ± 5.23 µM
same,IC50,[5],4.9 ± 2.9 µM
same,IC50,"[6]; Homo sapiens, PaTu 8902, 48 h",> 50 µM
same,IC50,"[7]; Homo sapiens, A2058, 48 h",38.1 ± 1.65 µM
same,Stern–Volmer quenching constant Ksv,[8],9.59 × 10^4 [M^−1]
same,bimolecular quenching rate constant kq,[8],9.59 × 10^12 [M^−1·s^−1]
same,melting point,,254 to 257 °C (dec.)
"COc1cc(/C=C2\SC(=O)N(Cc3cccc4cc5ccccc5nc34)C2=O)ccc1OCC(=O)Nc1ccccc1C(F)(F)F [Compound 13e, 2-(4-{[(5Z)-3-[(Acridin-4-yl)methyl]-2,4-dioxo-1,3-thiazolidin-5-ylidene]methyl}-2-methoxyphenoxy)-N-[2-(trifluoromethyl)phenyl]acetamide]",IC50,"[9]; Homo sapiens, MCF-10A, 48 h",14.9 ± 0.16 µM
same,IC50,"[1]; Homo sapiens, Fibroblast, 48 h",> 50 µM
same,IC50,"[2]; Homo sapiens, A549, 48 h",> 50 µM
same,IC50,"[3]; Homo sapiens, HepG2, 48 h",> 50 µM
same,IC50,"[10]; Homo sapiens, A2780, 48 h",> 50 µM
same,IC50,"[4]; Homo sapiens, HeLa, 48 h",26.7 ± 3.8 µM
same,IC50,"[5]; Homo sapiens, HCT-116, 48 h",9.9 ± 1.7 µM
same,IC50,"[6]; Homo sapiens, PaTu 8902, 48 h",> 50 µM
same,IC50,"[7]; Homo sapiens, A2058, 48 h",35.2 ± 2.87 µM
same,melting point,,217 to 218 °C
"COc1cc(/C=C2\SC(=O)N(Cc3cccc4cc5ccccc5nc34)C2=O)ccc1OCC(=O)Nc1cccc(C(F)(F)F)c1 [Compound 13f, 2-(4-{[(5Z)-3-[(Acridin-4-yl)methyl]-2,4-dioxo-1,3-thiazolidin-5-ylidene]methyl}-2-methoxyphenoxy)-N-[3-(trifluoromethyl)phenyl]acetamide]",IC50,"[9]; Homo sapiens, MCF-10A, 48 h",28.9 ± 5.6 µM
same,IC50,"[1]; Homo sapiens, Fibroblast, 48 h",> 50 µM
same,IC50,"[2]; Homo sapiens, A549, 48 h",> 50 µM
same,IC50,"[3]; Homo sapiens, HepG2, 48 h",> 50 µM
same,IC50,"[10]; Homo sapiens, A2780, 48 h",> 50 µM
same,IC50,"[4]; Homo sapiens, HeLa, 48 h",21.8 ± 6.4 µM
same,IC50,[5],36.3 ± 4.6 µM
same,IC50,"[6]; Homo sapiens, PaTu 8902, 48 h",> 50 µM
same,IC50,"[7]; Homo sapiens, A2058, 48 h",31.9 ± 4.1 µM
same,melting point,,203 to 205 °C
"COc1cc(/C=C2\SC(=O)N(Cc3cccc4cc5ccccc5nc34)C2=O)ccc1OCC(=O)Nc1cc(C(F)(F)F)cc(C(F)(F)F)c1 [Compound 13g, 2-(4-{[(5Z)-3-[(Acridin-4-yl)methyl]-2,4-dioxo-1,3-thiazolidin-5-ylidene]methyl}-2-methoxyphenoxy)-N-[3,5-bis(trifluoromethyl)phenyl]acetamide]",IC50,"[9]; Homo sapiens, MCF-10A, 48 h",> 50 µM
same,IC50,"[1]; Homo sapiens, Fibroblast, 48 h",> 50 µM
same,IC50,"[2]; Homo sapiens, A549, 48 h",> 50 µM
same,IC50,"[3]; Homo sapiens, HepG2, 48 h",> 50 µM
same,IC50,"[10]; Homo sapiens, A2780, 48 h",> 50 µM
same,IC50,"[4]; Homo sapiens, HeLa, 48 h",17.7 ± 2.9 µM
same,IC50,[5],24.9 ± 3.5 µM
same,IC50,"[6]; Homo sapiens, PaTu 8902, 48 h",> 50 µM
same,IC50,"[7]; Homo sapiens, A2058, 48 h",> 50 µM
same,melting point,,249 to 250 °C
